Measured values published in patent US20240101563A1, “NOVEL COMPOUNDS” (AC Immune SA, priority 2022, published 2024).
Where two headings read alike, the source gives them in different places.

System: NLRP3 inflammasome pathway
Test: NLRP3 inflammasome pathway activation assay, MSU stimulation, IL-1β HTRF
Format: cell-based
Settings: MSU 200 μg/mL for 3 h, IL-1β release, read-out: IC50 Human monocyte-like cells MSU
Description: The following assays were used to determine the inhibitory activity of test compounds on the NLRP3 inflammasome pathway using common stimuli Nigericin (Invivogen) or monosodium urate crystals (MSU) (Invivogen).
Human monocyte-like cells were cultured in RPMI-1640 Glutamax medium supplemented with 10% heat inactivated FBS (Fetal Bovine Serum) and 50 U/mL penicillin-streptomycin (Life Technologies).
Human monocyte-like cells were seeded at 25000 per well in a 384-well plate and were differentiated overnight into macrophages with 10 ng/mL PMA (Phorbol Myristate Acetate). The following day, medium containing 10 ng/mL LPS (Lipopolysaccharide) was added. After 3 hours of LPS priming, concentrations of test compound in the range from […] were added 30 min prior to NLRP3 inflammasome pathway stimulation with Nigericin 3.75 μM or MSU 200 μg/mL for 3 h.
For IL-1p quantification, supernatants were analyzed using HTRF kit according to the manufacturer's instructions (Cisbio 62HIL1BPEH). Briefly, in a 384-well ProxiPlate™ microplate, 8 μl of sample was mixed, with 5 μl of Anti-IL1β Cryptate antibody (40×) and Anti-IL1β XL antibody (40×). Then, incubated overnight at RT. Reading was done using an EnVision Reader (PerkinElmer).
IC50 (concentration corresponding to 50% inhibition) were determined using GraphPad Prism 9.

[1] = Homo sapiens, 3 h, Table 7, PMA-differentiated, LPS-primed cells
[2] = Table 7, PMA-differentiated, LPS-primed cells
[3] = Homo sapiens, 3 h, Table 8 (formula II′/II vs formula III)

| IC50 [1] | IC50 [2] | SMILES | IC50 [3] |
| --- | --- | --- | --- |
| < 100 nM |  | Cc1cc(Cl)cc(O)c1-c1nc2nc(N3CCC(O)C3)cnc2n1C (single isomer, unassigned) [Example 85A] |  |
|  | < 100 nM | Cc1cc(Cl)cc(O)c1-c1nc2nc(N3CCC(O)C3)cnc2n1C (single isomer, unassigned) [Example 85B] |  |
| < 100 nM |  | Cc1cc(Cl)cc(O)c1-c1nc2nc(N3CCC(C)(O)C3)cnc2n1C (single isomer, unassigned) [Example 86A] |  |
|  | < 100 nM | Cc1cc(Cl)cc(O)c1-c1nc2nc(N3CCC(C)(O)C3)cnc2n1C (single isomer, unassigned) [Example 86B] |  |

Further lines, the compound ahead of its results:

| SMILES | IC50 [1] | IC50 [2] | IC50 [3] |
| --- | --- | --- | --- |
| Cn1c(-c2ccc(C(F)(F)F)cc2O)nc2nc(O[C@H]3CC[C@H](O)C3)ccc21 (single isomer, unassigned) [Example 37A, trans-2-(5-((3-hydroxycyclopentyl)oxy)-1-methyl-1H-imidazo[4,5-b]pyridin-2-yl)-5-(trifluoromethyl)phenol] | 100 to 1000 nM |  |  |
| Cn1c(-c2ccc(C(F)(F)F)cc2O)nc2nc(O[C@H]3CC[C@H](O)C3)ccc21 (single isomer, unassigned) [Example 37B, trans-2-(5-((3-hydroxycyclopentyl)oxy)-1-methyl-1H-imidazo[4,5-b]pyridin-2-yl)-5-(trifluoromethyl)phenol] |  | 100 to 1000 nM |  |
| Cn1c(-c2ccc(C(F)(F)F)cc2O)nc2nc(NCCO)ccc21 [Example 1, 2-(5-((2-hydroxyethyl)amino)-1-methyl-1H-imidazo[4,5-b]pyridin-2-yl)-5-(trifluoromethyl)phenol] | 100 to 1000 nM |  | 100 to 500 nM |
| CN1CCC[C@@H](Nc2ccc3c(n2)nc(-c2ccc(C(F)(F)F)cc2O)n3C)C1 [Example 2] | 100 to 1000 nM |  | 100 to 500 nM |
| CNc1ccc2c(n1)nc(-c1c(C)cc(C(F)(F)F)cc1O)n2C [Example 3, 3-methyl-2-(1-methyl-5-(methylamino)-1H-imidazo[4,5-b]pyridin-2-yl)-5-(trifluoromethyl) phenol] | 100 to 1000 nM |  |  |
| CNc1ccc2c(n1)nc(-c1ccc(C(F)(F)F)cc1O)n2C [Example 4, 2-(1-methyl-5-(methylamino)-1H-imidazo[4,5-b]pyridin-2-yl)-5-(trifluoromethyl)phenol] | 100 to 1000 nM |  |  |
| Cn1c(-c2ccc(C(F)(F)F)cc2O)nc2nc(NCC(C)(C)O)ccc21 [Example 5, 2-(5-((2-hydroxy-2-methylpropyl)amino)-1-methyl-1H-imidazo[4,5-b]pyridin-2-yl)-5-(trifluoromethyl)phenol] | 100 to 1000 nM |  |  |
| Cc1cc(C(F)(F)F)cc(O)c1-c1nc2nc(NCC(C)(C)O)ccc2n1C [Example 6, 2-(5-((2-hydroxy-2-methylpropyl)amino)-1-methyl-1H-imidazo[4,5-b]pyridin-2-yl)-3-methyl-5-(trifluoromethyl)phenol] | > 1000 nM |  |  |
| Cn1c(-c2ccc(C(F)(F)F)cc2O)nc2nc(NC3COC3)ccc21 [Example 7, 2-(1-methyl-5-(oxetan-3-ylamino)-1H-imidazo[4,5-b]pyridin-2-yl)-5-(trifluoromethyl)phenol] | 100 to 1000 nM |  |  |
| Cc1cc(C(F)(F)F)cc(O)c1-c1nc2nc(NC3CCN(C)C3)ccc2n1C(C)C (stereo not drawn) [Example 10, 2-(1-isopropyl-5-((1-methylpyrrolidin-3-yl)amino)-1H-imidazo[4,5-b]pyridin-2-yl)-3-methyl-5-(trifluoromethyl)phenol] | < 100 nM |  |  |
| Cc1cc(C(F)(F)F)cc(O)c1-c1nc2nc(N[C@@H]3CCN(C)C3)ccc2n1C(C)C [Example 10B, (R)-2-(1-isopropyl-5-((1-methylpyrrolidin-3-yl)amino)-1H-imidazo[4,5-b]pyridin-2-yl)-3-methyl-5-(trifluoromethyl)phenol] | < 100 nM |  |  |
| CCn1c(-c2ccc(C(F)(F)F)cc2O)nc2nc(N[C@@H]3CCCN(C)C3)ccc21 [Example 12, (R)-2-(1-ethyl-5-((1-methylpiperidin-3-yl)amino)-1H-imidazo[4,5-b]pyridin-2-yl)-5-(trifluoromethyl)phenol] | 100 to 1000 nM |  |  |
